{
  "source": "paper PMC3918245",
  "about": "(ChemMedChem, 2013)",
  "origin": "cited, not measured here",
  "test_system": "deep-pocket MMPs",
  "settings": "semi-selective inhibition; specific inhibitors of MMP-8 and MMP-12",
  "data": [
    {"smiles": "O=C(NCc1ccc(-c2ccccc2)cc1)c1cccc(=O)n1O", "note": "[1,2-HOPO-2]", "values": [
      {"measurement": "IC50 against deep-pocket MMPs", "result": "low nanomolar range"}
    ]}
  ]
}
